In patent US8709398B2, “Probiotic Bifidobacterium strains” (Alimentary Health Limited, priority 2007, dated 2014):

Tested on: B. longum AH1205
Experiment: Antibiotic sensitivity, minimum inhibitory concentration (MIC)
Assay type: cell-based, Bifidobacterium longum
Conditions: against B. longum AH1205

Compound	minimum inhibitory concentration (MIC)
CCC[C@@H]1C[C@@H](C(=O)N[C@@H]([C@H]2O[C@H](SC)[C@H](O)[C@@H](O)[C@H]2O)[C@H](C)Cl)N(C)C1 [clindamycin]	0.032
Cc1ncc([N+](=O)[O-])n1CCO [metronidazole]	> 256
CN[C@H](CC(C)C)C(=O)N[C@H]1C(=O)N[C@@H](CC(N)=O)C(=O)N[C@H]2C(=O)N[C@H]3C(=O)N[C@H](C(=O)N[C@H](C(=O)O)c4cc(O)cc(O)c4-c4cc3ccc4O)[C@H](O)c3ccc(c(Cl)c3)Oc3cc2cc(c3O[C@@H]2O[C@H](CO)[C@@H](O)[C@H](O)[C@H]2O[C@H]2C[C@](C)(N)[C@H](O)[C@H](C)O2)Oc2ccc(cc2Cl)[C@H]1O [vancomycin]	0.75
